Test results reported in patent EP1189687B1, “FLOWABLE W/O TYPE EMULSIONS WITH A HIGH WATER CONTENT CONTAINING MEDIUM POLAR LIPIDS” (Beiersdorf AG, priority 1999, dated 2000).

Assay: Interfacial tension of medium-polar lipids against water (measure of polarity)
Format: physicochemical
Conditions: taken as polarity index of the lipid (the lower the tension, the more polar)
Description: Öle und Fette unterscheiden sich unter anderem in ihrer Polarität, welche schwierig zu definieren ist. Es wurde bereits vorgeschlagen, die Grenzflächenspannung gegenüber Wasser als Maß für den Polaritätsindex eines Öls bzw. einer Ölphase anzunehmen. Dabei gilt, daß die Polarität der betreffenden Ölphase umso größer ist, je niedriger die Grenzflächenspannung zwischen dieser Ölphase und Wasser ist. Erfindungsgemäß wird die Grenzflächenspannung als ein mögliches Maß für die Polarität einer gegebenen Ölkomponente angesehen.
Die Grenzflächenspannung ist diejenige Kraft, die an einer gedachten, in der Grenzfläche zwischen zwei Phasen befindlichen Linie der Länge von einem Meter wirkt. Die physikalische Einheit für diese Grenzflächenspannung errechnet sich klassisch nach der Beziehung Kraft/Länge und wird gewöhnlich in mN/m (Millinewton geteilt durch Meter) wiedergegeben. Sie hat positives Vorzeichen, wenn sie das Bestreben hat, die Grenzfläche zu verkleinern. Im umgekehrten Falle hat sie negatives Vorzeichen.
Die nachfolgende Tabelle 1 führt mittelpolare Lipide auf, die als Einzelsubstanzen oder auch im Gemisch untereinander erfindungsgemäß vorteilhaft sind. Die betreffenden Grenzflächenspannungen gegen Wasser sind in der letzten Spalte angegeben. Es ist jedoch auch vorteilhaft, Gemische aus höher- und niederpolaren und dergleichen zu verwenden, sofern gewährleistet ist, daß die Gesamtpolarität der Ölphase im beanspruchten Bereich liegt. Tabelle 1
In the case of `CCCCCCCCCCCCCCCCCC(=O)OCCCCCCCC` [Cetiol® 868, Octyl Stearate], the “Grenzflächenspannung gegen Wasser” value is reported as 28,4 mN/m.
With `CCCCCCCCCCC(CO)CCCCCCCC` (centres unmarked) [Eutanol® G, Octyldodecanol] the “Grenzflächenspannung gegen Wasser” value was 24,8 mN/m.
With `CCCCCCCCC(CO)CCCCCC` (centres unmarked) [Isofol® 16, Hexyl Decanol] the “Grenzflächenspannung gegen Wasser” value was 24,3 mN/m.
In the case of `CCCCCCCCCCCCCCCCCC(=O)OC(C)C` [Isopropylstearal, Isopropyl Stearate], the “Grenzflächenspannung gegen Wasser” value is reported as 21,9 mN/m.
With `CCCCCCCCCCCCCC(=O)OCC(CCCCCCCC)CCCCCCCCCC` (centres unmarked) [MOD, Octyldodeceyl Myristate] the “Grenzflächenspannung gegen Wasser” value was 22,1 mN/m.
With `CCCCCCCCOC(=O)CCCCCCCCCCCCCCC(C)C` [Prisorine® 2036, Octyl Isostearate] the “Grenzflächenspannung gegen Wasser” value was 29,7 mN/m.
In the case of `CCCCCCCCCCCCCCCCCCOC(=O)CCCCCC` [Tegosoft® SH, Stearyl Heptanoate], the “Grenzflächenspannung gegen Wasser” value is reported as 28,7 mN/m.
With `CCCCCCCC(=O)OCC(COC(=O)CCCCCCC)OC(=O)CCCCCCC` [Trivent® OCG, Tricaprylin] the “Grenzflächenspannung gegen Wasser” value was 20,2 mN/m.
